Source: publication PMC6270570, “New Flurbiprofen Derivatives: Synthesis, Membrane Affinity and Evaluation of in Vitro Effect on β-Amyloid Levels” (Molecules, 2013)
Where two headings read alike, the source gives them in different places. Marks after values point to notes of the source that are not given here.

Tests used:
[1] = PAMPA-BBB permeability (porcine polar brain lipid extract); format: in vitro ADME; conditions: pH 7.4, 18 h of incubation; for Papp at 18 h, 500 µM: PAMPA, read-out: PAMPA-BBB Pe
Procedure: (§1) The following protocol was applied to measure the Pe through the artificial membrane to predict oral absorption and BBB permeation. In order to study the g.i. permeability, a 2% solution (w/v) of egg lecithin (phosphatidyl choline > 98%, PC) in dodecane was employed as an artificial membrane solution. The effective permeability of BBB was measured using phospholipid mixture from porcine polar brain lipid extract, composed by PC 12.6%, phosphatidylethanolamine (PE) 33.1%, phosphatidylserine (PS) 18.5%, phosphatidylinositol (PI) 4.1%, phospatidic acid (PA) 0.8% and 30.9% of other compounds (purchased from Avantis Polar Lipids, Alabaster, AL, USA). Each donor filtration plate well was then impregnated with 5 µL of this solution carefully, and immediately after 150 µL of phosphate buffer (pH 7.4/pH 6.5), containing co-drug 1 500 µM and iPrOH 20% as co-solvent was added. Then the drug-filled donor plate was placed into the acceptor plate that had been prefilled with the same buffer (300 µL) as acceptor solution. After plate lid was replaced, the resulting assembled donor-acceptor plates were incubated at r.t. for 2 h for PAMPA-GI and 18 h for PAMPA-BBB, following which drugs concentration in the acceptor and donor solutions were determined by HPLC [37].
(§2) Log Pe can be calculated from the equation below: [drawing 10] (2) where Pe is the effective permeability coefficient (cm x s^−1), VD is volume of donor compartment (0.15 cm^3) and VA is volume of acceptor compartment (0.30 cm^3), A is effective filter area (0.28 cm^2), t is incubation time for the assay (s), Cacceptor is the concentration of the compound in the acceptor compartment at the completion of the assay, and Cequilibrium is the concentration of compound at theoretical equilibrium.

[2] = PAMPA-GI permeability (egg lecithin in dodecane); format: in vitro ADME; conditions: read-out: PAMPA-GI Pe
Procedure: as §1, §2

APP = conditions: 24 h
Procedure: For detection of cell viability, a Trypan blue dye exclusion test has been performed [33].
Cell lysates (20 µg) have been electrophoresed and transferred to nitrocellulose membrane. […] Immunoreactive bands have been detected by ECL detection system (Amersham Intl., Buckinghamshire, UK) and analysed by densitometry. Densitometric values, expressed as Integrated Optical Intensity (I.O.I.), have been estimated in a CHEMIDOC XRS system by the QuantiOne 1-D analysis software (BioRad, Richmond, CA, USA). Values obtained have been normalized basing on densitometric values of internal β tubulin. Statistical analysis has been performed using the analysis of variance (ANOVA). Results have been expressed as mean ± SD. Values of p < 0.05 have been considered statistically significant.

[3] = IAM-HPLC affinity for membrane phospholipids (logKIAM/W); format: physicochemical; conditions: IAM.PC.MG column, pH 7.0 phosphate buffer/acetonitrile, extrapolated to 100% aqueous eluent
Procedure: n-Octanol/water partition coefficients were theoretically calculated by the program clogP for windows version 2.0 (Biobyte Corp., Claremont, CA, USA). Affinity for membrane phospholipids, so called “phospholipophilicity”, was measured by HPLC on a phospholipid stationary phase. […] liquid chromatograph (Waters-Millipore, Milford, MA, USA), equipped with a 7125 Rheodyne injection valve and a 486 UV detector (Waters) set at 246 nm, was used. The column was an IAM.PC.MG (Immobilized Artificial Membrane-PhosphatidylCholine-MethylGlycolate) (4.6 mm × 150 mm) (Regis Chemical Company, Morton Grove, IL, USA). The mobile phase was 0.01 M phosphate buffer at pH 7.0 and acetonitrile at percentages ranging from 10 to 35 percent (v/v) (from 1.0 to 4.0 mL/min). The chromatography was carried out at room temperature. All samples were dissolved in methanol (ca. 10^-3 M) and 20 μL samples were injected in the chromatograph. Chromatographic retention data are expressed as the logarithm of the capacity factor, log k, defined as: log k = log [(tr - t0)/t0] (1) where tr and t0 are the retention times of the drug and a non-retained compound (citric acid), respectively. The log k values relative to 100% aqueous eluent (logKIAM/W) were calculated by performing a polycratic method of extrapolation. Each compound was eluted with at least three different mobile phases containing acetonitrile in different percentages (φ). […] All values of log k reported are the average of at least three measurements; the 95% confidence interval never exceeded 0.04 for each log k value. Possible occurrence of retention changes due to column aging was monitored by checking the retention times of five test compounds (amlodipine, p-nitroaniline, toluene, isradipine, and ketoprofen).

Aβ-42 = assay: Western blotting of Aβ-42 expression in CTXTNA2 astrocytes (in vitro γ-secretase activity); format: cell-based, rat; conditions: 24 h
Procedure: CTXTNA2 cell line, established from primary cultures of type 1 astrocytes from brain frontal cortex tissue of 1 day old rats, was obtained by ECACC (Salisbury, UK). Cells have been maintained in DMEM, 10% FBS at 37 °C, 5% CO2 until sub-confluence and incubated for 24 h with a DMSO solution of drug (concentrations ranging from 1 µM to 100 µM). For detection of cell viability, a Trypan blue dye exclusion test has been performed.
Cell lysates (20 µg) have been electrophoresed and transferred to nitrocellulose membrane. Nitrocellulose membranes, blocked in 5% non-fat milk, 10 mmol/L Tris pH 7.5, 100 mmol/L NaCl, 0.1% Tween-20, have been probed with mouse APP (Millipore, Billerica, MA, USA) and Aβ (Alpha Diagnostic Intl, San Antonio, TX, USA) monoclonal antibodies (Santa Cruz Biotechnology, Santa Cruz, CA, USA), then incubated in the presence of specific enzyme conjugated IgG horseradish peroxidase. Immunoreactive bands have been detected by ECL detection system (Amersham Intl., Buckinghamshire, UK) and analysed by densitometry. Densitometric values, expressed as Integrated Optical Intensity (I.O.I.), have been estimated in a CHEMIDOC XRS system by the QuantiOne 1-D analysis software (BioRad, Richmond, CA, USA). Values obtained have been normalized basing on densitometric values of internal β tubulin. Statistical analysis has been performed using the analysis of variance (ANOVA). Results have been expressed as mean ± SD. Values of p < 0.05 have been considered statistically significant.

[4] = RP-HPLC retention factor extrapolated to 100% water (KC18/W); format: physicochemical; conditions: for KC18/W (retention factor extrapolated to 100% water): RP-HPLC, acetonitrile/water mixtures; for chromatographic logP: by comparison with KC18/W and logP of nisoldipine and lacidipine, read-out: logP calculated from KC18/W
Procedure: Similarly, due to their high lipophilicity, experimental n-octanol/water lipophilicity values of enantiomers 8/9 were determined by RP-HPLC because their characterization through the “classical” shake-flask method was expected to be difficult and scarcely reproducible. The retention factor, determined in acetonitrile/water mixtures and extrapolated to 100% water (KC18/W) for enantiomers 8/9 was 3.94 (data not shown).

[5] = set-up: method as in doi:10.1016/0223-5234(96)80368-0; conditions: n-octanol/water; cited from earlier work

Compound	Papp at 18 h, 500 µM [1] [×10⁻⁶ cm/s]	melting point [°C]	Papp at 2 h, 500 µM ([2]; pH 6.5, 2 h of incubation) [×10⁻⁶ cm/s]	Papp at 2 h, 500 µM ([2]; pH 7.4, 2 h of incubation) [×10⁻⁶ cm/s]	Expression of APP (APP; 1 µM)	Expression of APP (APP; 10 µM)	Expression of APP (APP; 100 µM)	LogKIAM/W [3]	Expression of Aβ-42 (Aβ-42; 1 µM)	Expression of Aβ-42 (Aβ-42; 10 µM)	Expression of Aβ-42 (Aβ-42; 100 µM)	Aβ-42 production, effect in words (Aβ-42; 1 µM to 100 µM, without affecting the APP level)	PAMPA-BBB Pe [1]	KC18/W (retention factor extrapolated to 100% water) [4]	chromatographic logP [4]	logP (experimentally determined values) [5]
C[C@H](NC(=O)[C@H](C)c1ccc(-c2ccccc2)c(F)c1)C(=O)N[C@H](C(=O)OC(C)(C)C)c1ccccc1 [Compound 1, tert-Butyl (2S)-({N-[(2R)-2-(2-fluoro-1,1'-biphenyl-4-yl)propanoyl]-L-alanyl}amino)(phenyl)acetate]	2.4	105 to 107	3.7	4.8	(93.1 ± 3.8) × 10^−2	(89.4 ± 3.2) × 10^−2	(120 ± 3.2) × 10^−2	3.67	(29.2 ± 1.2) × 10^−2	(43.5 ± 1.6) × 10^−2	(45.8. ± 1.3) × 10^−2					
C[C@H](NC(=O)[C@@H](C)c1ccc(-c2ccccc2)c(F)c1)C(=O)N[C@H](C(=O)OC(C)(C)C)c1ccccc1 [Compound 2, tert-Butyl(2S)-({N-[(2S)-2-(2-fluoro-1,1'-biphenyl-4-yl)propanoyl]-L-alanyl}amino)(phenyl)acetate]	2.1	106 to 108	3.6	4.1	(93.1 ± 2.6) × 10^−2	(93.3 ± 3.5) × 10^−2	(63.6 ± 2.8) × 10^−2	3.80	(20.0 ± 1.1) × 10^−2	(12.1 ± 0.6) × 10^−2	(8.4 ± 0.2) × 10^−2	highly effective				
C[C@H](NC(=O)Cc1ccc(-c2ccccc2)c(F)c1)C(=O)N[C@H](C(=O)OC(C)(C)C)c1ccccc1 [Compound 3, tert-butyl (2S)-({N-[(2-fluoro-1,1'-biphenyl-4-yl)acetyl]-L-alanyl}amino)(phenyl)acetate]		104 to 106	2.1	2	(64.1 ± 2.3) × 10^−2	(72.2 ± 2.1) × 10^−2	(105 ± 3.2) × 10^−2	3.64	(8.8. ± 0.4) × 10^−2	(10.5 ± 0.4) × 10^−2	(45.8. ± 1.3) × 10^−2		2.0 10^−6 cm/s			
CN1C(=O)[C@H](NC(=O)Cc2ccc(-c3ccccc3)c(F)c2)c2ccccc2-c2ccccc21 [Compound 8, 2-(2-Fluoro-1,1'-biphenyl-4-yl)-N-[(7R)-5-methyl-6-oxo-6,7-dihydro-5H-dibenzo[b,d]azepin-7-yl]-acetamide]	2.3	96 to 100	2.5	2.6	(82.3 ± 3.2) × 10^−2	(68.1 ± 3.2) × 10^−2	(94.4 ± 4.2) × 10^−2	3.58	(31.1 ± 0.9) × 10^−2	(25.0 ± 1.0) × 10^−2	(35.2 ± 1.1) × 10^−2			3.94	5.49	
CN1C(=O)[C@@H](NC(=O)Cc2ccc(-c3ccccc3)c(F)c2)c2ccccc2-c2ccccc21 [Compound 9, 2-(2-Fluoro-1,1'-biphenyl-4-yl)-N-[(7S)-5-methyl-6-oxo-6,7-dihydro-5H-dibenzo[b,d]azepin-7-yl]-acetamide]	2.3	96 to 100	2.5	2.6	(68.7 ± 2.2) × 10^−2	(69.2 ± 1.4) × 10^−2	(94.3 ± 3.2) × 10^−2	3.58	(43.2 ± 2.1) × 10^−2	(38.4 ± 1.0) × 10^−2	(14.0 ± 0.5) × 10^−2			3.94	5.49	
CCOC(=O)C1=C(C)NC(C)=C(C(=O)OCC)C1c1ccccc1/C=C/C(=O)OC(C)(C)C [Lacidipine, reference compound]								3.52						4.01		5.56 ^a
COC(=O)C1=C(C)NC(C)=C(C(=O)OCC(C)C)C1c1ccccc1[N+](=O)[O-] (stereo not drawn) [Nisoldipine, reference compound]								2.63						2.99		4.53 ^a
